Results as given in patent publication US20240285551A1, “A SMALL MOLECULE TNF-a INHIBITOR AND PREPARATION METHOD AND USE THEREOF” (FUDAN UNIVERSITY, priority 2021, published 2024).

Columns and labels:
IL-6 [1] = assay: colon tissue IL-6 mRNA by qPCR, DSS acute UC mice; format: in vivo; conditions: 10 mg/kg
Protocol: (§1) Except for the normal group, all other groups of mice were allowed to freely drink a 3% DSS solution which was freshly prepared and replaced the next day (wherein the 3% DSS solution was prepared by weighing 3 g of a DSS powder (from MP Biomedicals, USA with a molecular weight of 36,000 to 50,000) and fully dissolving it in 100 mL of the drinking water for the mice); whereas the normal group was given blank drinking water; the control group mice drank water normally for 7 days, while the DSS group mice drank the 3% DSS solution freely for 7 days and were administrated for 6 days from the second day DSS was given. The mice were administered by gavage once a day with a volume of 10 mL/kg, wherein the normal control group and DSS group were gavaged with a solvent of 0.5% CMC-Na (wherein a 0.5% CMC-Na solution is at a concentration of 0.5 g/100 mL, the same below), while the other groups were separately gavaged with drugs dissolved in 0.5% CMC-Na.
(§2) After dissection, a segment of the colon was taken from the same part of each mouse, total RNAs were extracted from tissues, and mRNA expressions of such inflammatory factors as TNF-α, IL-1β, IL-6, and IL-23 in colon tissues of the mice were detected through qPCR.

IL-1β [2] = assay: serum IL-1β protein by ELISA, DSS acute UC mice; format: in vivo; conditions: 10 mg/kg
Protocol: as §1

IL-23 [3] = assay: serum IL-23 protein by ELISA, DSS acute UC mice; format: in vivo; conditions: 10 mg/kg
Protocol: as §1
(§3) To investigate the effects of compounds (R)-STU104, (S)-STU104, and (±)-STU104 on the secretion of such inflammatory factors as TNF-α, IL-1β, IL-6, and IL-23 by mice of the DSS induced acute ulcerative colitis model in C57 mice, we isolated serum after blood acquisition and detected the contents of such inflammatory factors as TNF-α, IL-1β, IL-6, and IL-23 in the serum of mice using ELISA.

IL-23 [4] = assay: colon tissue IL-23 mRNA by qPCR, DSS acute UC mice; format: in vivo; conditions: 10 mg/kg
Protocol: as §1, §2

[5] = system: DSS induced acute ulcerative colitis model in C57 mice; assay: DSS induced acute ulcerative colitis in C57 mice (body weight, DAI, colon length, H&E pathology); format: in vivo; conditions: gavage once a day
Protocol: as §1
The normal control group mice were vivacious with glossy fur, stable weight gain, and normal stools appearing elliptical or spindle shaped.
In order to further evaluate the disease development for each group of acute UC mice, we performed DAI scoring on the loose and bloody stools etc. for each mouse (see panel B1 in FIG. 3). […] As the experiment progressed, the disease became gradually worsened, with some animals experiencing severe bloody stools and significant emaciation.
(§4) After dissection, the colon of each mouse was taken and the length of the colon was measured separately.

TNF-α [6] = assay: colon tissue TNF-α mRNA by qPCR, DSS acute UC mice; format: in vivo; conditions: 10 mg/kg
Protocol: as §1, §2

TNF-α [7] = assay: serum TNF-α protein by ELISA, DSS acute UC mice; format: in vivo; conditions: 10 mg/kg
Protocol: as §1, §3

IL-6 [8] = assay: serum IL-6 protein by ELISA, DSS acute UC mice; format: in vivo; conditions: 10 mg/kg
Protocol: as §1, §3

TNF-α [9] = assay: release of the inflammatory factor TNF-α by LPS induced macrophages (RAW264.7), RT-PCR; format: cell-based; conditions: Mus musculus, RAW264.7, LPS 1 μg/ml, 24 hours, read-out: IC50 with respect to the release of the inflammatory factor TNF-α
Protocol: LPS (1 μg/ml) and different concentrations of (±)-STU104 or (R)-STU104 (0.1 to 50 μM) were added respectively after the cells grew to a fused state, and incubated together at 37° C. under 5% CO2 for 24 hours. A blank control group was established, and RT-PCR was employed to detect the inhibition states of TNF-α in cells by these compounds.

IL-1β [10] = assay: colon tissue IL-1β mRNA by qPCR, DSS acute UC mice; format: in vivo; conditions: 10 mg/kg
Protocol: as §1, §2

[11] = system: chronic ulcerative colitis model in IL-10 whole gene knockout mice; assay: chronic ulcerative colitis in IL-10 whole gene knockout mice (survival, body weight, colon length, H&E pathology); format: in vivo; conditions: positive drug group, dose not given
Protocol: Ten C57 mice (aged 10-12 weeks, around 20 g) with an identified genotype of Wildtype were taken as the normal control group. […] The mice were administered by gavage once a day with a volume of 10 mL/kg, wherein the normal control group and DSS group were gavaged with a solvent of 0.5% CMC-Na while the other groups were separately gavaged with drugs dissolved in 0.5% CMC-Na.
as §4

`COc1ccc(C2CC(=O)c3cc(OC)cc(OC)c32)cc1` (racemic) [(±)-STU104] was tested, and the “inhibition ratio of IL-6 mRNA in colon tissues” value (IL-6 [1]) was 56.1%, the “inhibition ratio of IL-1β protein content in serum” value (IL-1β [2]) was 68.6% and the “inhibition ratio of IL-23 protein content in serum” value (IL-23 [3]) was 45.2%. For the same compound, the “inhibition ratio of IL-23 mRNA in colon tissues” value (IL-23 [4]) was 73.1%, the “colon length recovery rate (inhibition of colon shortening)” value ([5]; 10 mg/kg) was 25.7% and the “recovery rate of colon pathological sections (H&E)” value ([5]; 10 mg/kg) was 48.3%. For the same compound, the “DAI score inhibition ratio” value ([5]; 10 mg/kg, day 7) was 8.3%, the “body weight recovery rate” value ([5]; 10 mg/kg, day 7) was 20.0% and the “inhibition ratio of TNF-α mRNA in colon tissues” value (TNF-α [6]) was 55.4%. For the same compound, the “inhibition ratio of TNF-α protein content in serum” value (TNF-α [7]) was 48.1%, the “inhibition ratio of IL-6 protein content in serum” value (IL-6 [8]) was 49.1% and the IC50 (TNF-α [9]) was 1.27 µM. The “inhibition ratio of IL-1β mRNA in colon tissues” value (IL-1β [10]) was 67.5%.

With `Nc1ccc(O)c(C(=O)O)c1` [mesalazine, reference compound] the “recovery rate of colon pathological sections (H&E)” value [11] was 44.3%, the total mortality rate [11] was “no deaths occurred” and the “colon length recovery rate (inhibition of colon shortening)” value ([5]; 50 mg/kg) was 26.4%. The “recovery rate of colon pathological sections (H&E)” value ([5]; 50 mg/kg) was 38.0% and the “body weight recovery rate” value ([5]; 50 mg/kg, day 7) was 7%.
